# Measurements as given in ChEMBL document CHEMBL1201862, “PubChem BioAssay data set” (2004).
# Counter-ions that a name gives are not always drawn. The source made the active and inactive calls.
# Legend:
# [1] = biological target: FAD-linked sulfhydryl oxidase ALR (Homo sapiens, UniProt P55789); experiment: ALR-catalysed DTT oxidation blockers – biochemical, H2O2 detection, luminescence, cherry-pick, dose response (AID 493248)
# [2] = biological target: T1, RNA-binding protein pos-1 (Caenorhabditis elegans, UniProt G5EF15); experiment: disruptors of C. elegans POS-1 RNA interaction – biochemical, fluorescence polarization, dose response (AID 1964);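 note: purified POS-1 fused to maltose binding protein made in E. coli; potency of compounds blocking POS-1 binding to fluorescent RNA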
# T1 sequence (G5EF15 whole entry): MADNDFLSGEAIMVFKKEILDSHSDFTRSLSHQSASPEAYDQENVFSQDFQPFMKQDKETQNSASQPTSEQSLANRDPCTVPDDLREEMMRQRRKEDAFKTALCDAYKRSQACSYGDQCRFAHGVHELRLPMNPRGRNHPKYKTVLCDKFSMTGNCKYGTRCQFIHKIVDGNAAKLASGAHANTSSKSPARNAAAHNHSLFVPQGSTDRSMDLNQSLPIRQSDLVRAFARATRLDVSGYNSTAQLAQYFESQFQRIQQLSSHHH
# [3] = Luminescence Cell-Based Dose Confirmation HTS to Identify Activators of 5'UTR Stem-Loop Driven Alpha-Synuclein mRNA Translation in H4 Neuroglioblastoma Cells. [Related pubchem assays: 1829 (Project Summary), 1814 (Primary HTS)]; type: functional
# [4] = Luminescence Cell-Based Dose Response HTS to Identify Activators of Luciferase Translation or Activity in H4 […] Cells. [Related pubchem assays: 1829 (Project Summary), 1814 (Primary HTS)]; type: functional
# H4 = experiment: Luminescence Cell-Based Dose Response HTS to Identify Activators of 5'UTR Stem-Loop Driven Prion Protein mRNA Translation in H4 Neuroglioblastoma Cells. [Related pubchem assays: 1829 (Project Summary), 1814 (Primary HTS)]; type: functional; conditions: Homo sapiens
# [5] = biological target: T2, Zinc finger protein mex-5 (Caenorhabditis elegans, UniProt Q9XUB2); experiment: potency of MEX-5 RNA-binding blockers – biochemical, C. elegans, fluorescence polarization, dose response (AID 1960)
# T2 sequence (Q9XUB2 whole entry): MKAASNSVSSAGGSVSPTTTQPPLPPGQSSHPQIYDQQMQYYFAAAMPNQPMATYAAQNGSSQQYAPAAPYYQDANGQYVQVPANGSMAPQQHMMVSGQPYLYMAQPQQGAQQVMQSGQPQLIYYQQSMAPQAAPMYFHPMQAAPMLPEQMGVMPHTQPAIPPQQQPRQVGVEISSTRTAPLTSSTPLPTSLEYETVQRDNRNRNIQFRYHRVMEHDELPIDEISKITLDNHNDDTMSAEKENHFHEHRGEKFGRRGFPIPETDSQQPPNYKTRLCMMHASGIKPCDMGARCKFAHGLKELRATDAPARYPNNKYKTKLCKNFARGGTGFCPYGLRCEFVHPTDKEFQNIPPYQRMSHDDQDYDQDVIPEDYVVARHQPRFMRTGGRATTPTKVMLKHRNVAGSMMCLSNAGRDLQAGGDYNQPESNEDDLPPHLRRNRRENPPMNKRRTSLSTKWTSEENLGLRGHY
# [6] = luciferase reporter signal suppression in cells – H4 neuroglioma cells, luminescence, dose response (AID 1990); type: functional, cell-based
# [7] = Luminescence Cell-Based Dose Response HTS to Identify Inhibitors of 5'UTR Stem-Loop Driven Prion Protein mRNA Translation in H4 Neuroglioblastoma Cells. [Related pubchem assays: 1827 (Project Summary), 1813 (Primary HTS)]; type: functional
# [8] = alpha-synuclein stem-loop luciferase translation blockers – H4 neuroglioma cells, luminescence, confirmation (AID 1988); type: functional, cell-based
# [9] = reduction of Shn3 3'UTR-driven luciferase in osteoblasts – cell-based, Clone20 osteoblasts, firefly luciferase, cherry-picked, dose response (AID 624132); type: functional;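 note: firefly luciferase luminescence from reporter carrying the Shn3 3'UTR in osteoblasts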
# Cytochrome P450 2C19 = Cytochrome P450 2C19 (Homo sapiens, UniProt P33261); experiment: Cytochrome panel assay with activity outcomes. Panel member name: p450-cyp2c19 Compounds with AC50 equal or less than 10 uM are considered active; type: functional; conditions: read-out: AC50
# Chain of Cytochrome P450 2C19 (P33261 whole entry): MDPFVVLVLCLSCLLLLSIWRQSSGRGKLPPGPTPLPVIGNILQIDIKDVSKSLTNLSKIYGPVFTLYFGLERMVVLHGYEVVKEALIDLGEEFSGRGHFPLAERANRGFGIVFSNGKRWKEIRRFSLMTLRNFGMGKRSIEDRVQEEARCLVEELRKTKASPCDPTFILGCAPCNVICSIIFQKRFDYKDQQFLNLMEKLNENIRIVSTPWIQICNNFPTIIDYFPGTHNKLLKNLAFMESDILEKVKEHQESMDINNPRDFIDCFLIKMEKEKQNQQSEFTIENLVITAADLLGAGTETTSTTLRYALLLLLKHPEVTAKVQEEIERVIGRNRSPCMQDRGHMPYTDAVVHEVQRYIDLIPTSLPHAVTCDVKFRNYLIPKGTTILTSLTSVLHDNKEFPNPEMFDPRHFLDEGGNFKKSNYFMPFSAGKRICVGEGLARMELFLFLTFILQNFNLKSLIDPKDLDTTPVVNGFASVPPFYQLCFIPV
# Cytochrome P450 3A4 = Cytochrome P450 3A4 (Homo sapiens, UniProt P08684);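 note: CYP3A4 tested as one member of a cytochrome P450 panel screen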
# Chain of Cytochrome P450 3A4 (P08684 whole entry): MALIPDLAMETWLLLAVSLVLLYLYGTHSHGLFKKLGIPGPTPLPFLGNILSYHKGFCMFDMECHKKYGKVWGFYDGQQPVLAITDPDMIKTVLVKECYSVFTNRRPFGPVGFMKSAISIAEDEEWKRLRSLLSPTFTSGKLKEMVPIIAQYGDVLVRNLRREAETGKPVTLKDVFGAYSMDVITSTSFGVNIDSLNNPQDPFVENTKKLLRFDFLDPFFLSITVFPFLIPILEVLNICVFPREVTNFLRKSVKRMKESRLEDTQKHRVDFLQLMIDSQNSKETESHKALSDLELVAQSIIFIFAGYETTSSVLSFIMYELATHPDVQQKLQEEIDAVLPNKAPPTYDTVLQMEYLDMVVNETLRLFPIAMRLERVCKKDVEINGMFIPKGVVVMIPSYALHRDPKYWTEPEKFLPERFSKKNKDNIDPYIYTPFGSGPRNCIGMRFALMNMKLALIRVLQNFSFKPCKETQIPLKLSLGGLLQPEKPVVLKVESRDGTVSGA
# Cytochrome P450 2C9 = Cytochrome P450 2C9 (Homo sapiens, UniProt P11712)
# Chain of Cytochrome P450 2C9 (P11712 whole entry): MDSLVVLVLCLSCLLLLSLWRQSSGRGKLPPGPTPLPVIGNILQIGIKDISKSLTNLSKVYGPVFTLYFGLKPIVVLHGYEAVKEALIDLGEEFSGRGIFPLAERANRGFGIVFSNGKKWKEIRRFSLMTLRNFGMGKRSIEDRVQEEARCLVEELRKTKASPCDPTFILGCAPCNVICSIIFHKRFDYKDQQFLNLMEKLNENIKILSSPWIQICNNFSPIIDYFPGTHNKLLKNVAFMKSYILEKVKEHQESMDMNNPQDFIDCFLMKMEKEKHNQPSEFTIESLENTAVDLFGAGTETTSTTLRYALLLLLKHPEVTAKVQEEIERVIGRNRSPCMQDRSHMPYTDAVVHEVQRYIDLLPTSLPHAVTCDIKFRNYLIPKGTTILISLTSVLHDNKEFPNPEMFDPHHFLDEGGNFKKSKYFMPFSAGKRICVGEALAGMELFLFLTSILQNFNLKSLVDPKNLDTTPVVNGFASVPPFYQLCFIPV
# Cytochrome P450 1A2 = biological target: T3, Cytochrome P450 1A2 (Homo sapiens, UniProt P05177);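 note: PubChem cytochrome P450 panel assay, CYP1A2 panel member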
# T3 sequence (P05177 whole entry): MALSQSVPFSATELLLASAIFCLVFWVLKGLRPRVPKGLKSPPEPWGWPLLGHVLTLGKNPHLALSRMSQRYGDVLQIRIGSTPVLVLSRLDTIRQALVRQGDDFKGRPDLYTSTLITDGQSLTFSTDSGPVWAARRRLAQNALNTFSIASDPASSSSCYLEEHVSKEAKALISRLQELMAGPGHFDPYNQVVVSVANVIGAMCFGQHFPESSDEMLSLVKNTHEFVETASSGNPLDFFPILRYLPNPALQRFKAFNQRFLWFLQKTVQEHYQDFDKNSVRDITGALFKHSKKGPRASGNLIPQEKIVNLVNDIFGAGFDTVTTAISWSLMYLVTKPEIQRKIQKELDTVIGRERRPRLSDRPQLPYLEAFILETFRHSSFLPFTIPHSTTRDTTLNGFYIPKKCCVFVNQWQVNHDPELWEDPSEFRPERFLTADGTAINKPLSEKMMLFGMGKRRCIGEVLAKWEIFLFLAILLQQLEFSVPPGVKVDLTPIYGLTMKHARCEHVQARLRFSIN
# Paired box protein Pax-8 = Paired box protein Pax-8 (Homo sapiens, UniProt Q06710); experiment: PAX8 transcriptional activity inhibition in RMG-I – RMG-I cells, luciferase, cherry-pick, dose response (AID 687027); type: functional, cell-based;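 note: luciferase reporter driven by Pax8 target thyroperoxidase promoter measured by SteadyGlo luminescence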
# Chain of Paired box protein Pax-8 (Q06710 whole entry): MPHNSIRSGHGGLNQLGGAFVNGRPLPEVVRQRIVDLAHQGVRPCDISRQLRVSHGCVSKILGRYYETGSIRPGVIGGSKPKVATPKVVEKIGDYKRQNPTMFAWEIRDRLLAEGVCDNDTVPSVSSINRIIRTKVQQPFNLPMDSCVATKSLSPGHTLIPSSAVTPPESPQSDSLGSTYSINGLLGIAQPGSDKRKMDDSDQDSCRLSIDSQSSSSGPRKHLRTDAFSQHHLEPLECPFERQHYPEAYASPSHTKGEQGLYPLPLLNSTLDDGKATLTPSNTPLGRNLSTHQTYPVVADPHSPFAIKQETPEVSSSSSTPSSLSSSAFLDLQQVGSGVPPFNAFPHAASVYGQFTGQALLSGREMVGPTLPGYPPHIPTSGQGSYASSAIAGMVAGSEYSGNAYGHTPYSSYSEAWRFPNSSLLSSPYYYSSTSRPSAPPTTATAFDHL
# [10] = tested on: Streptococcus sp. 'group A'; experiment: Streptococcus pyogenes SK(-)GAS viability under kanamycin – luminescence, BacTiterGlo, confirmation, counter-screen for streptokinase expression inhibitor project, dose response (AID 1900); type: functional, organism-based
# Streptokinase A = biological target: T4, Streptokinase A (Streptococcus pyogenes serotype M1, UniProt P10520); experiment: viability-normalized secreted streptokinase activity reduction – plasminogen activation absorbance, OD405, dose response (AID 1914); type: functional, Streptococcus pyogenes M1 GAS;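 note: secreted streptokinase activity via plasminogen activation per viability signal from cell pellet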
# T4 sequence (P10520 whole entry): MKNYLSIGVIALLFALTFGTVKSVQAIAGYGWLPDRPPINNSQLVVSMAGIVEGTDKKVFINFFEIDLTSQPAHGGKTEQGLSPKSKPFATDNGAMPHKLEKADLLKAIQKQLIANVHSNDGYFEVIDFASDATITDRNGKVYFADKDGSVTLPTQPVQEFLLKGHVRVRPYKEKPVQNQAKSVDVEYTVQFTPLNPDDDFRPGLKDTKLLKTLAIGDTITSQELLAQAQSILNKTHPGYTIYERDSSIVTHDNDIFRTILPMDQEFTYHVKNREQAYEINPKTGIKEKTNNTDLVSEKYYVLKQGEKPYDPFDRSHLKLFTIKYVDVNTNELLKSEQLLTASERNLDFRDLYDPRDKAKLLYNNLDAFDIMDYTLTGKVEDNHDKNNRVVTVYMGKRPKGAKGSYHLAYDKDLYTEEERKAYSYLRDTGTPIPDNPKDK
# Streptococcus = experiment: GAS UMAA2166 growth inhibition – luminescence, BacTiterGlo, counter-screen for streptokinase expression inhibitor project, dose response (AID 1915); type: functional, organism-based;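 note: potency for reduction of bacterial viability or growth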
# Cytochrome P450 2D6 = Cytochrome P450 2D6 (Homo sapiens, UniProt P10635);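 note: CYP2D6 member of a cytochrome P450 panel assay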
# Chain of Cytochrome P450 2D6 (P10635 whole entry): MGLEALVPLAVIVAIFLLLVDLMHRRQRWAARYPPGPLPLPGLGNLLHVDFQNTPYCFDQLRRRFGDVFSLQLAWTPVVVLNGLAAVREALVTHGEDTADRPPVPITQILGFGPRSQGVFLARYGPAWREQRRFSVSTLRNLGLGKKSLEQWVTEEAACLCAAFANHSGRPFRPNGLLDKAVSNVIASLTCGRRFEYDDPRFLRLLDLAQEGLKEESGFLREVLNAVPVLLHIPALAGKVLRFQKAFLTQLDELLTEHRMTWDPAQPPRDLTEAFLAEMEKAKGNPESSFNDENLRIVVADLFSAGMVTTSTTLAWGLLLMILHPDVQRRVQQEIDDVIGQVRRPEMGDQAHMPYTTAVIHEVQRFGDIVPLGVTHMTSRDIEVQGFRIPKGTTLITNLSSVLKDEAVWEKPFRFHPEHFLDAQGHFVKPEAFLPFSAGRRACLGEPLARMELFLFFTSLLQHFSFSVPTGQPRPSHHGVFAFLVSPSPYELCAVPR
# Chain of FAD-linked sulfhydryl oxidase ALR (P55789 whole entry, the tested form may be a part): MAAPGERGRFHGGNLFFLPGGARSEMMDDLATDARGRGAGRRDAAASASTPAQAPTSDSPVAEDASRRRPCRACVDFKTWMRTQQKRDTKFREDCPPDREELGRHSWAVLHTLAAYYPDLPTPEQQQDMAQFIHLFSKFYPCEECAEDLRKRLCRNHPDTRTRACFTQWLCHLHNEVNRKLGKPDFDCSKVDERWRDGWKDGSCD
structure (smiles),measurement,setting,value
N=C(NOC(=O)c1ccco1)c1ccc(Cl)cc1,AC50,[1],13.1 µM (active)
Cc1ccc(S(=O)(=O)c2cc3c(=O)n4ccccc4nc3n(CCc3ccccc3)c2=N)cc1,EC50,[2],111 µM (inconclusive)
same,EC50,[3],97.9 µM (active)
same,EC50,[4],> 120 µM (not active)
same,EC50,H4,0.713 µM (active)
same,EC50,[5],3.75 µM (inconclusive)
Nc1ccc(Sc2cc(Cl)nc(N)n2)cc1,EC50,[6],> 120 µM (not active)
same,EC50,[7],> 120 µM (not active)
same,EC50,[8],99.5 µM (active)
Cc1ccc(C)c(Nc2c([N+](=O)[O-])ccc3nonc23)c1,EC50,[6],19.9 µM (active)
same,EC50,[7],> 120 µM (not active)
same,EC50,[8],53.7 µM (active)
COc1cc(NC(=O)c2cc3c(Cl)nc4ccccc4c3s2)cc(OC)c1OC,AC50,[9],24.4 µM (active)
Cc1nn(-c2cc(C)c3ccccc3n2)c2c1CCC2,EC50,[3],4.27 µM (active)
same,EC50,[4],18.8 µM (active)
same,EC50,H4,80.3 µM (active)
CC(C)NCC(O)COc1cccc2ccccc12 (configuration not stated) [PROPRANOLOL HYDROCHLORIDE],AC50,[9],23.6 µM (active)
CN(C)S(=O)(=O)c1ccc(Cl)c(NC(=O)CN2CCCCCC2)c1,EC50,[6],> 120 µM (not active)
same,EC50,[7],> 120 µM (not active)
same,EC50,[8],> 120 µM (not active)
Cc1cccc(CSC2=NCCN2C(=O)c2ccco2)c1,AC50,[1],11 µM (active)
Cc1nc2cncnc2n(Cc2ccc(F)cc2)c1=O,AC50,Cytochrome P450 2C19,39.8 µM (inconclusive)
same,AC50,Cytochrome P450 3A4,15.8 µM (inconclusive)
same,AC50,Cytochrome P450 2C9,25.1 µM (inconclusive)
COC(=O)c1ccc(NS(=O)(=O)NC(=O)c2cn(C)c3ccccc23)cc1,EC50,[3],> 120 µM (not active)
same,EC50,[4],> 120 µM (not active)
same,EC50,H4,> 120 µM (not active)
FC(F)(F)c1c[nH]c2c(-c3ccccc3)nnc-2c1,EC50,[3],1.29 µM (active)
same,EC50,[4],19.3 µM (active)
same,EC50,H4,13.9 µM (active)
CCc1ccc(NC(=O)c2[nH]c(C)c(C(C)=O)c2C)cc1,EC50,[3],1.62 µM (active)
same,EC50,[4],2.6 µM (active)
COCCCn1c(SCC(=O)Nc2ccc(C(C)=O)cc2)nc2ccccc2c1=O,EC50,[3],13.9 µM (active)
same,EC50,[4],22.8 µM (active)
same,EC50,H4,68.6 µM (active)
Cc1cc(-c2nnc3n2N=C(c2ccc(F)cc2)CS3)[nH]n1,EC50,[3],> 120 µM (not active)
same,EC50,[4],> 120 µM (not active)
same,EC50,H4,> 120 µM (not active)
NNC(=O)c1cccc(COc2ccccc2Br)c1,AC50,[1],> 100 µM (inactive)
COc1ccc(/C=N/NC(=O)c2ccco2)cc1Cn1nc(C)c([N+](=O)[O-])c1C,EC50,[6],> 120 µM (not active)
same,EC50,[7],> 120 µM (not active)
same,EC50,[8],> 120 µM (not active)
COC(=O)C1=C(C)n2nnnc2NC1c1ccc(Cl)cc1 (configuration not stated),EC50,[6],20.6 µM (active)
same,EC50,[7],> 120 µM (not active)
same,EC50,[8],> 120 µM (not active)
CCSc1nnc(-c2c[nH]c3ccccc23)o1,EC50,[3],63.9 µM (active)
same,EC50,[4],21.1 µM (active)
same,EC50,H4,24.7 µM (inconclusive)
Cc1ccc(S(=O)(=O)N/N=C/c2cccn2-c2ccc(Cl)cc2)cc1,AC50,Cytochrome P450 2C19,0.0501 µM (inconclusive)
same,AC50,Cytochrome P450 1A2,12.6 µM (inconclusive)
same,AC50,Cytochrome P450 2C9,12.6 µM (inconclusive)
COc1ccc(C(=O)C[n+]2ccccc2C=NO)cc1,EC50,[3],12.5 µM (active)
same,EC50,[4],12.1 µM (active)
same,EC50,H4,32 µM (active)
CC(C)c1ccc(/C=C2\SC(=O)N(CC(=O)NCCCn3ccnc3)C2=O)cc1,EC50,[3],29.8 µM (active)
same,EC50,[4],0.418 µM (active)
same,EC50,H4,18.7 µM (active)
same,AC50,[1],1.75 µM (active)
O=C(NCCc1cccs1)C1CC(c2ccc([N+](=O)[O-])cc2)=NO1 (configuration not stated),EC50,[3],118 µM (active)
same,EC50,[4],50.8 µM (active)
same,EC50,H4,16.2 µM (active)
Cc1ccc(NC2CCCN(C(=O)Cc3nonc3C)C2)cc1C (configuration not stated),AC50,[1],2.54 µM (active)
OCCN1CCN(c2nc(N3CCCCC3)nc(N3CCCCC3)n2)CC1,AC50,Cytochrome P450 2C19,39.8 µM (inconclusive)
same,AC50,Cytochrome P450 3A4,14.1 µM (inconclusive)
same,AC50,Cytochrome P450 2C9,15.8 µM (inconclusive)
C=CC[C@@H](CC(=O)N[C@H](CO)Cc1ccccc1)C(=O)N[C@H](COC(=O)[C@@H](CC=C)Cc1ccc(F)cc1)Cc1c[nH]c2ccccc12,AC50,Paired box protein Pax-8,8.96 µM (active)
Cc1[nH]c2ccccc2c1C(=O)COc1ccccc1,EC50,[3],18.7 µM (active)
same,EC50,[4],16.4 µM (active)
same,EC50,H4,13.2 µM (active)
COc1ccc(C(=O)CCN2CCc3cc(OC)c(OC)cc3C2)cc1,AC50,[1],1.84 µM (active)
Nc1c(Cl)cc(C2=NCCn3c2c2ccc([N+](=O)[O-])cc2[n+]3[O-])cc1Cl,EC50,[6],14.7 µM (active)
same,EC50,[10],2 µM (active)
same,EC50,[7],> 120 µM (not active)
same,EC50,[8],8.15 µM (active)
same,EC50,Streptokinase A,> 150 µM (not active)
same,EC50,Streptococcus,5.67 µM (active)
COc1nccc(-c2c(-c3ccc(F)cc3)ncn2C2CCC(O)CC2)n1 (configuration not stated),AC50,Cytochrome P450 2C19,7.94 µM (inconclusive)
same,AC50,Cytochrome P450 2D6,12.6 µM (inconclusive)
same,AC50,Cytochrome P450 1A2,31.6 µM (inconclusive)
same,AC50,Cytochrome P450 2C9,7.94 µM (inconclusive)
CCN(CCCNC(=O)CNC(=O)Cn1cnc2ccccc2c1=O)c1ccccc1,AC50,[1],0.729 µM (active)
CC(=O)OC(C)(C)/C=C/C(=O)[C@](C)(O)C1[C@H](O)C[C@@]2(C)C3CC=C4C(C=C(O[C@@H]5O[C@H](CO)[C@@H](O)[C@H](O)[C@H]5O)C(=O)C4(C)C)[C@]3(C)C(=O)C[C@]12C (some centres not stated),AC50,Paired box protein Pax-8,7.14 µM (active)
